# System: bone volume in ovariectomized rats
# Test: Change in bone volume by microCT in ovariectomized rat model of osteoporosis
# Format: in vivo
# Conditions: OVX female rats, 60 μg/kg/day subcutaneous daily for 8 weeks starting 8 weeks after surgery; at 16 weeks post-ovariectomy; compared with sham, OVX-BP, OVX-PTH and weekly BP-PEG-PTH groups
# Source text: Sixty female rats were divided into five groups and evaluated using the ovariectomy procedure (OVX): control (sham-operated; n=12), ovariectomy with bisphosphonate treatment (OVX-BP; n=12), OVX with teriparatide treatment (OVX-PTH; daily; n=12), OVX with daily BP-PEG-PTH treatment (n=12), and OVX with weekly BP-PEG-PTH treatment (n=12), where BP is 2-[(3-mercaptopropyl)thio]ethane-1,1-diyl}bis(phosphonic acid). Rats were ovariectomized at week 0 and the control group underwent a sham ovariectomy. Rats were left untreated for 8 weeks after surgery to allow for osteopenia to develop. After 8 weeks, rats in the OVX-PTH group received daily subcutaneous injections of PTH (60 μg/kg/day) for 8 weeks. Rats in the OVX-BP group received daily doses of bisphosphonate. Rats in the OVX-BP-PEG-PTH daily group received daily subcutaneous injections of BP-PEG-PTH (60 μg/kg/day). Rats in the OVX-BP-PEG-PTH weekly group received weekly subcutaneous injections of BP-PEG-PTH (60 μg/kg/week).
# In vivo change in bone volume was measured by micro-computed tomography (microCT).
substance,measurement,value
"BP-PEG-PTH: hPTH (1-34) conjugated via Maleimide-PEG3500-NHS linker to thiol-bisphosphonate 2-[(3-mercaptopropyl)thio]ethane-1,1-diyl}bis(phosphonic acid)",In vivo change in bone volume (microCT),greatest increase in bone volume

# — patent publication US9718868B2, “Parathyroid hormone, insulin, and related peptides conjugated to bone targeting moieties and methods and making and using thereof” (THE GOVERNORS OF THE UNIVERSITY OF ALBERTA, priority 2012, dated 2017)
